Where a SMILES comes first, the peptide text is derived from it.
T1: AF9 (Homo sapiens, UniProt P42568)
T1 sequence (P42568 497-568): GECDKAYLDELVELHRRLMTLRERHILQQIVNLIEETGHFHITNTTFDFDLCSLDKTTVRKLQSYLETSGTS

T2: ENL (Homo sapiens, UniProt Q03111)
T2 construct: against AF9(497-568) and ENL (489-559) proteins running different tested concentrations over CM5 chip; MBP (pMSCG9-LIC vector); made in house; host or cells: Escherichia coli BL21 (DE3)
T2 sequence (Q03111 489-559): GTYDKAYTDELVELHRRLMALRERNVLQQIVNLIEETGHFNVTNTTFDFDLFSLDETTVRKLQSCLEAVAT

T3: ENL (489-559) (Homo sapiens, UniProt Q03111)
T3 construct: ENL protein (residues 489-559); MBP (pMSCG9-LIC vector); made in house; host or cells: Escherichia coli BL21 (DE3)
T3 sequence (Q03111 489-559): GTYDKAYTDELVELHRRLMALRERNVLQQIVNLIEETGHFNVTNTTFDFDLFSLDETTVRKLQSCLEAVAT

T4: AF9 (497-568) (Homo sapiens, UniProt P42568)
T4 construct: human AF9 (residues 497-568); GB1 (pGB1-LIC vector); made in house; host or cells: Escherichia coli BL21 (DE3)
T4 sequence (P42568 497-568): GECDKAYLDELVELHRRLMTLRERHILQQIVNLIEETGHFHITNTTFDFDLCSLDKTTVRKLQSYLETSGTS


Columns and labels:
[1] = biological target: T1, AF9; assay: SPR competitive binding assay of small molecules, AF9-DOT1L; design: against AF9(497-568) and ENL (489-559) proteins running different tested concentrations over CM5 chip; GB1 (pGB1-LIC vector); made in house; host or cells: Escherichia coli BL21 (DE3)
Text: Several secondary assays have already been developed to support hit confirmation and the hit-to-probe optimization process. The established and optimized SPR-based competitive assay utilizing DOT1L protein (826-1095) immobilized on the CM5 sensor chip was used as a secondary counter screen assay to validate binding of compounds to AF9. […] Both assays gave similar IC50 values.
(§1) To further validate the binding of the confirmed compounds and identify potential promiscuous inhibitors, several secondary assays have been developed to support hit confirmation and the hit-to-probe optimization process. In order to determine that the compounds bind effectively to the target and disrupt protein-protein interaction, a SPR competitive binding assay was used. This assay uses a platform that differs from the FP-based assay where DOT1L recombinant protein (residues […]) is immobilized on a CM5 chip, allowing for testing of the inhibitors for their ability to disrupt AF9-DOT1L protein-protein interactions.

[2] = biological target: T2, ENL; assay: SPR competitive binding assay of small molecules, ENL; details: SPR competitive based assay; read-out: ENL IC50 ± SD
Text: as §1
This class of compounds was also tested for their binding against ENL protein, which is highly homologous with AF9.

[3] = biological target: T2, ENL; assay: Solution competitive SPR assay of peptides, ENL-DOT1L interaction; assay type: binding; details: CM5 chip with immobilized DOT1L protein, read-out: IC50 ± SD ENL
Experimental: (§2) Solution competitive SPR based assay was performed to determine the IC50 values of DOT1L peptides. […] Response units (RU) were measured at 15 seconds in the dissociation phase and the specific binding was calculated by subtracting the control surface (Fcl) signal from the surfaces with immobilized Mocr-DOT1L. IC50 values were determined by non-linear least squares analysis using Graph Pad Prism 5.0 software.

[4] = biological target: T1, AF9; assay: Optimized competitive FP binding assay (N-Flu-DOT1L / AF9); design: the recombinant GB1-AF9 protein (residues 497-568); made in house; host or cells: Escherichia coli BL21 (DE3)
[5] = biological target: T1, AF9; assay: Solution competitive SPR assay of peptides, AF9-DOT1L interaction; assay type: binding; design: against AF9(497-568) and ENL (489-559) proteins running different tested concentrations over CM5 chip; GB1 (pGB1-LIC vector); made in house; host or cells: Escherichia coli BL21 (DE3); details: CM5 chip with immobilized DOT1L protein, read-out: IC50 ± SD AF9
Experimental: as §2

[6] = biological target: T3, ENL (489-559); assay: SPR binding of ENL to immobilized DOT1L constructs; details: DOT1L construct immobilized on CM5 sensor chip, read-out: ENL (489-559) Kd ± SD
Text: (§3) AF9 and ENL are two of the most common MLL fusion proteins (see, e.g., Daser A, Rabbitts T H (2004) Genes & development 18: 965-974) and belong to the YEATS protein family (see, e.g., Schulze J M, et al., (2009) Biochem Cell Biol 87: 65-75). Both of these two proteins consist of N-terminal YEATS domain and a C-terminal hydrophobic domain (see, e.g., Zhang W, et al., (2007) J Clin Invest 117: 773-783). AF9 and ENL shared high homology in the C-terminal domain and it had been shown that through this domain AF9/ENL are involved in the PPI which is crucial for MLL leukemia transformation (see, e.g., Dobson C L, et al., (1999) Embo J 18: 3564-3574; Mueller D, et al., (2007) Blood 110: 4445-4454; Yokoyama A, et al., (2010) Cancer cell 17: 198-212). The interaction of AF9 or ENL with DOT1L has been reported previously by co-immunoprecipitation and yeast 2-hybrid studies (see, e.g., Biswas D, et al., (2011) PNAS 108: 15751-15756; Yokoyama A, et al., (2010) Cancer cell 17: 198-212; Zhang W, et al., (2006) J Biol Chem 281: 18059-18068; Zhang W, et al., (2007) J Clin Invest 117: 773-783; Mueller D, et al., (2007) Blood 110: 4445-4454). However, there is a lack of detailed biochemical and biophysical characterization of this interaction. To understand the molecular basis of DOT1L interaction with MLL-fusion proteins, these PPIs were analyzed using surface plasma resonance (SPR). An SPR assay was developed to quantify the binding affinity between full length DOT1L protein and MLL-fusion proteins. For that purpose, the flag-tagged full length DOT1L protein was transiently transfected in HEK 293 cells and after 48 hours transfection the flag-tagged DOT1L protein was captured from the HEK 293 whole cell lysate on an anti-flag antibody-coated biosensor chip (FIG. 1B and FIG. 14). The recombinant C-terminal domain from human AF9 (residues 497-568) and the corresponding segment from ENL protein (residues 489-559) were cloned, expressed and purified for the biochemical binding studies (FIG. 1A). […] For the first time these studies quantitatively determined the binding affinity of DOT1L to AF9 and ENL and confirmed that DOT1L directly interacts with AF9 and ENL and has about six folds higher affinity against AF9 in comparison with ENL.
(§4) Surface Plasmon Resonance (SPR) binding studies—All SPR based experiments were performed on a BIAcore 2000 (BIAcore, GE Healthcare) instrument. Different tested DOT1L recombinant proteins were immobilized on a CM5 sensor chip by standard EDC/NHS coupling chemistry followed by ethanolamine deactivation of the surfaces. For immobilization of full length Flag-DOT1L protein, anti-Flag antibody (Sigma, Anti-FLAG M2) was immobilized on CM5 chip by the same amine coupling chemistry. HEK293 whole cells lysate with overexpressed Flag-DOT1L at 2.4 μg/l total protein concentration was injected over the Flag antibody surface, followed by injecting of AF9 and ENL in different concentrations. […] The Fcl surface was used as a control surface and was treated in the same manner as the active surfaces but in the absence of immobilized protein. Binding parameters, kon, koff and Kd were calculated by simultaneous non-linear regression using BIAEvaluation software.

[7] = biological target: T4, AF9 (497-568); assay: SPR binding of AF9 to immobilized DOT1L constructs; details: DOT1L construct immobilized on CM5 sensor chip, read-out: AF9 (497-568) Kd ± SD
Text: as §3, §4

[8] = SPR competitive, read-out: IC50, inhibition of AF9-DOT1L interaction
[9] = SPR competitive based assay, read-out: AF9 IC50 ± SD

Molecule | Kd [6] [nM] | Kd [7] [nM] | also measured
O=c1c(O)cccc2cc(O)c(O)c(O)c12 [CCG-38505] | – | – | IC50 [1, 8]: 5720 nM
O=C(c1cc(O)c(O)c(O)c1)c1ccc(O)c(O)c1O [CCG-208095] | – | – | IC50 [1, 8]: 6270 nM
Cc1ccc(S(=O)(=O)N2c3ccccc3NC3=C(C(=O)CC(C)(C)C3)C2c2ccco2)cc1 (stereo not shown) [Compound 41] | – | – | IC50 [2]: 33200 ± 8700 nM; IC50 [1, 9]: 46400 ± 12400 nM
CC1(C)CC(=O)C2=C(C1)Nc1ccccc1N(S(C)(=O)=O)C2c1cccs1 (stereo not shown) [Compound 51] | – | – | IC50 [2]: > 200000 nM; IC50 [1, 9]: > 200000 nM; IC50 [1, 8]: > 200000 nM
Cc1ccc(C)c(S(=O)(=O)N2c3ccccc3NC3=C(C(=O)CCC3)C2c2cccs2)c1 (stereo not shown) [Compound 52] | – | – | IC50 [2]: 25100 ± 2500 nM; IC50 [1, 9]: 43100 ± 800 nM
CC[C@H](C)[C@H](NC(=O)[C@H](CO)NC(=O)[C@H](C)NC(=O)[C@@H]1CCCN1C(=O)[C@H](CC(C)C)NC(C)=O)C(=O)N1CCC[C@H]1C(=O)N[C@@H](CC(C)C)C(=O)N[C@@H](CO)C(=O)N[C@H](C(=O)N[C@H](C(N)=O)C(C)C)[C@@H](C)O [Compound I867A] (Ac-LPASIPLSTV-NH2) | – | – | IC50 [3]: > 200000 nM
CC[C@H](C)[C@H](NC(=O)[C@@H]1CCCN1C(=O)[C@H](CC(C)C)NC(C)=O)C(=O)N[C@@H](CO)C(=O)N[C@@H](C)C(=O)N1CCC[C@H]1C(=O)N[C@@H](CC(C)C)C(=O)N[C@@H](CO)C(=O)N[C@H](C(=O)N[C@H](C(N)=O)C(C)C)[C@@H](C)O [Compound I869A] (Ac-LPISAPLSTV-NH2) | – | – | Ki [4]: > 100000 nM; IC50 [3]: > 200000 nM; IC50 [5]: > 200000 nM
CC[C@H](C)[C@H](NC(=O)[C@@H]1CCCN1C(=O)[C@H](CC(C)C)NC(C)=O)C(=O)N[C@@H](CO)C(=O)N[C@H](C(=O)N1CCC[C@H]1C(=O)N[C@@H](CC(C)C)C(=O)N[C@@H](CO)C(=O)N[C@@H](C)C(=O)N[C@H](C(N)=O)C(C)C)[C@@H](C)CC [Compound T873A] (Ac-LPISIPLSAV-NH2) | – | – | Ki [4]: 203 nM
DOT1L (1-1537): Flag-tagged full length human DOT1L protein | 206 ± 80 | 33 ± 4 | –
DOT1L (826-1095): recombinant DOT1L construct (protein) SPQDPRPLSPGALQLAGEKSSEKGLRERAYGSSGELITSLPISIPLSTVQPNKLPVSIPLASVVLPSRAERARSTPSPVLQPRDPSSTLEKQIGANAHGAGSRSLALAPAGFSYAGSVAISGALAGSPASLTPGAEPATLDESSSSGSLFATVGSRSSTPQHPLLLAQPRNSLPASPAHQLSSSPRLGGAAQGPLPEASKGDLPSDSGFSDPESEAKRRIVFTITTGAGSAKQSPSSKHSPLTASARGDCVPSHGQDSRRRGRRKRASAG | 238 | 111 | –
DOT1L (854-1095): recombinant truncated DOT1L construct (protein) AYGSSGELITSLPISIPLSTVQPNKLPVSIPLASVVLPSRAERARSTPSPVLQPRDPSSTLEKQIGANAHGAGSRSLALAPAGFSYAGSVAISGALAGSPASLTPGAEPATLDESSSSGSLFATVGSRSSTPQHPLLLAQPRNSLPASPAHQLSSSPRLGGAAQGPLPEASKGDLPSDSGFSDPESEAKRRIVFTITTGAGSAKQSPSSKHSPLTASARGDCVPSHGQDSRRRGRRKRASAG | 148 ± 14 | 135 ± 4 | –
DOT1L (826-958): recombinant truncated DOT1L construct (protein) SPQDPRPLSPGALQLAGEKSSEKGLRERAYGSSGELITSLPISIPLSTVQPNKLPVSIPLASVVLPSRAERARSTPSPVLQPRDPSSTLEKQIGANAHGAGSRSLALAPAGFSYAGSVAISGALAGSPASLTP | 122 ± 16 | 92 ± 8 | –
DOT1L (925-1095): recombinant truncated DOT1L construct (protein) AGSRSLALAPAGFSYAGSVAISGALAGSPASLTPGAEPATLDESSSSGSLFATVGSRSSTPQHPLLLAQPRNSLPASPAHQLSSSPRLGGAAQGPLPEASKGDLPSDSGFSDPESEAKRRIVFTITTGAGSAKQSPSSKHSPLTASARGDCVPSHGQDSRRRGRRKRASAG | 6220 | 1820 | –
DOT1L (854-925): recombinant truncated DOT1L construct, 72 amino acids (protein) AYGSSGELITSLPISIPLSTVQPNKLPVSIPLASVVLPSRAERARSTPSPVLQPRDPSSTLEKQIGANAHGA | 90 | 42 | –
DOT1L (826-937): recombinant truncated DOT1L construct (protein) SPQDPRPLSPGALQLAGEKSSEKGLRERAYGSSGELITSLPISIPLSTVQPNKLPVSIPLASVVLPSRAERARSTPSPVLQPRDPSSTLEKQIGANAHGAGSRSLALAPAGF | 81 ± 6 | 78 ± 15 | –

Source: patent publication US9862746B2, “Compositions and methods relating to hindering DOT1L recruitment by MLL-fusion proteins” (The Regents of the University of Michigan, priority 2013, dated 2018)
